Source: PubChem BioAssay (NCI)
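Grown in 96-well plates, cells were treated for 48 hours with each compound at five concentrations. Insufficient inhibition: endpoint recorded as highest concentration tested. TGI: concentration producing complete growth inhibition.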

Key:
Assay in all cases: NCI anticancer screen, dose series, 48 h
NCI-H522 lung = tested on: NCI-H522 lung
HOP-92 NSCLC = tested on: HOP-92 NSCLC
M19-MEL melanoma = tested on: M19-MEL melanoma
OVCAR-4 ovarian = tested on: OVCAR-4 ovarian
UO-31 renal = tested on: UO-31 renal
SF-295 CNS = tested on: SF-295 CNS
SN12C renal = tested on: SN12C renal
ACHN renal = tested on: ACHN renal
HT29 colon = tested on: HT29 colon
HOP-62 NSCLC = tested on: HOP-62 NSCLC
MALME-3M melanoma = tested on: MALME-3M melanoma
IGROV1 ovarian = tested on: IGROV1 ovarian
NCI-H23 lung = tested on: NCI-H23 lung
NCI-H226 lung = tested on: NCI-H226 lung
HCT-15 colon = tested on: HCT-15 colon
NCI-H460 lung = tested on: NCI-H460 lung
COLO 205 colon = tested on: COLO 205 colon
SK-MEL-2 melanoma = tested on: SK-MEL-2 melanoma
LXFL 529 NSCLC = tested on: LXFL 529 NSCLC
OVCAR-3 ovarian = tested on: OVCAR-3 ovarian
CAKI-1 renal = tested on: CAKI-1 renal
RPMI-8226 leukemia = tested on: RPMI-8226 leukemia
SK-MEL-28 melanoma = tested on: SK-MEL-28 melanoma
M14 melanoma = tested on: M14 melanoma
SNB-19 CNS = tested on: SNB-19 CNS
SF-268 CNS = tested on: SF-268 CNS
MOLT-4 leukemia = tested on: MOLT-4 leukemia
KM12 colon = tested on: KM12 colon
A498 renal = tested on: A498 renal
SW-620 colon = tested on: SW-620 colon
TK-10 renal = tested on: TK-10 renal
KM20L2 colon = tested on: KM20L2 colon
RXF 393 renal = tested on: RXF 393 renal
OVCAR-8 ovarian = tested on: OVCAR-8 ovarian
OVCAR-5 ovarian = tested on: OVCAR-5 ovarian
U251 CNS = tested on: U251 CNS
HCT-116 colon = tested on: HCT-116 colon
DLD-1 colon = tested on: DLD-1 colon
SK-OV-3 ovarian = tested on: SK-OV-3 ovarian
HCC-2998 colon = tested on: HCC-2998 colon
UACC-257 melanoma = tested on: UACC-257 melanoma
EKVX NSCLC = tested on: EKVX NSCLC
DMS 114 small cell lung = tested on: DMS 114 small cell lung
786-0 renal = tested on: 786-0 renal
SK-MEL-5 melanoma = tested on: SK-MEL-5 melanoma
A549 NSCLC = tested on: A549 NSCLC
DMS 273 small cell lung = tested on: DMS 273 small cell lung
SNB-78 CNS = tested on: SNB-78 CNS
LOX IMVI melanoma = tested on: LOX IMVI melanoma
K-562 leukemia = tested on: K-562 leukemia
SR leukemia = tested on: SR leukemia
CCRF-CEM leukemia = tested on: CCRF-CEM leukemia
RXF-631 renal = tested on: RXF-631 renal
SNB-75 CNS = tested on: SNB-75 CNS
UACC-62 melanoma = tested on: UACC-62 melanoma
HOP-18 NSCLC = tested on: HOP-18 NSCLC
SF-539 CNS = tested on: SF-539 CNS
HL-60(TB) leukemia = tested on: HL-60(TB) leukemia

O=C(O)C1(c2ccccc2)CCCNCC1 (stereo unspecified)
TGI (NCI-H522 lung): > 100 µM | TGI (HOP-92 NSCLC): > 100 µM | TGI (M19-MEL melanoma): > 100 µM | TGI (OVCAR-4 ovarian): > 100 µM | TGI (UO-31 renal): > 100 µM | TGI (SF-295 CNS): > 100 µM | TGI (SN12C renal): > 100 µM | TGI (ACHN renal): > 100 µM | TGI (HT29 colon): > 100 µM | TGI (HOP-62 NSCLC): > 100 µM | TGI (MALME-3M melanoma): > 100 µM | TGI (IGROV1 ovarian): > 100 µM | TGI (NCI-H23 lung): > 100 µM | TGI (NCI-H226 lung): > 100 µM | TGI (HCT-15 colon): > 100 µM | TGI (NCI-H460 lung): > 100 µM | TGI (COLO 205 colon): > 100 µM | TGI (SK-MEL-2 melanoma): > 100 µM | TGI (LXFL 529 NSCLC): > 100 µM | TGI (OVCAR-3 ovarian): > 100 µM | TGI (CAKI-1 renal): > 100 µM | TGI (RPMI-8226 leukemia): > 100 µM | TGI (SK-MEL-28 melanoma): > 100 µM | TGI (M14 melanoma): > 100 µM | TGI (SNB-19 CNS): > 100 µM | TGI (SF-268 CNS): > 100 µM | TGI (MOLT-4 leukemia): > 100 µM | TGI (KM12 colon): > 100 µM | TGI (A498 renal): > 100 µM | TGI (SW-620 colon): > 100 µM | TGI (TK-10 renal): > 100 µM | TGI (KM20L2 colon): > 100 µM | TGI (RXF 393 renal): > 100 µM | TGI (OVCAR-8 ovarian): > 100 µM | TGI (OVCAR-5 ovarian): > 100 µM | TGI (U251 CNS): > 100 µM | TGI (HCT-116 colon): > 100 µM | TGI (DLD-1 colon): > 100 µM | TGI (SK-OV-3 ovarian): > 100 µM | TGI (HCC-2998 colon): > 100 µM | TGI (UACC-257 melanoma): > 100 µM | TGI (EKVX NSCLC): > 100 µM | TGI (DMS 114 small cell lung): > 100 µM | TGI (786-0 renal): > 100 µM | TGI (SK-MEL-5 melanoma): > 100 µM | TGI (A549 NSCLC): > 100 µM | TGI (DMS 273 small cell lung): > 100 µM | TGI (SNB-78 CNS): > 100 µM | TGI (LOX IMVI melanoma): > 100 µM | TGI (K-562 leukemia): > 100 µM | TGI (SR leukemia): > 100 µM | TGI (CCRF-CEM leukemia): > 100 µM | TGI (RXF-631 renal): > 100 µM | TGI (SNB-75 CNS): > 100 µM | TGI (UACC-62 melanoma): > 100 µM | TGI (HOP-18 NSCLC): > 100 µM

CCOc1nc(OCC)nc(-c2cccn2-c2ccccc2)n1
TGI (NCI-H522 lung): > 100 µM | TGI (M19-MEL melanoma): > 100 µM | TGI (OVCAR-4 ovarian): > 100 µM | TGI (UO-31 renal): 67.9 µM | TGI (SF-295 CNS): > 100 µM | TGI (SN12C renal): > 100 µM | TGI (ACHN renal): > 100 µM | TGI (HT29 colon): > 100 µM | TGI (HOP-62 NSCLC): > 100 µM | TGI (MALME-3M melanoma): 60.6 µM | TGI (IGROV1 ovarian): 89.3 µM | TGI (NCI-H23 lung): > 100 µM | TGI (NCI-H226 lung): > 100 µM | TGI (HCT-15 colon): > 100 µM | TGI (NCI-H460 lung): > 100 µM | TGI (SK-MEL-2 melanoma): 97.1 µM | TGI (OVCAR-3 ovarian): 69.3 µM | TGI (CAKI-1 renal): > 100 µM | TGI (SK-MEL-28 melanoma): > 100 µM | TGI (M14 melanoma): > 100 µM | TGI (SNB-19 CNS): > 100 µM | TGI (SF-268 CNS): > 100 µM | TGI (MOLT-4 leukemia): 57.4 µM | TGI (KM12 colon): > 100 µM | TGI (A498 renal): > 100 µM | TGI (SW-620 colon): > 100 µM | TGI (TK-10 renal): 89.2 µM | TGI (SF-539 CNS): > 100 µM | TGI (RXF 393 renal): > 100 µM | TGI (OVCAR-8 ovarian): > 100 µM | TGI (OVCAR-5 ovarian): > 100 µM | TGI (U251 CNS): 48.6 µM | TGI (HCT-116 colon): > 100 µM | TGI (SK-OV-3 ovarian): 75 µM | TGI (HCC-2998 colon): > 100 µM | TGI (UACC-257 melanoma): > 100 µM | TGI (EKVX NSCLC): > 100 µM | TGI (DMS 114 small cell lung): 86.8 µM | TGI (786-0 renal): > 100 µM | TGI (HL-60(TB) leukemia): 82.5 µM | TGI (A549 NSCLC): > 100 µM | TGI (DMS 273 small cell lung): > 100 µM | TGI (SNB-78 CNS): > 100 µM | TGI (K-562 leukemia): > 100 µM | TGI (SR leukemia): 99.7 µM | TGI (CCRF-CEM leukemia): > 100 µM | TGI (RXF-631 renal): > 100 µM | TGI (UACC-62 melanoma): > 100 µM

COC(=O)C(C(=O)C(=O)Nc1nc2ccc([N+](=O)[O-])cc2s1)c1nc2ccc(Cl)cc2[nH]c1=O (stereo unspecified)
TGI (NCI-H522 lung): > 100 µM | TGI (M19-MEL melanoma): > 100 µM | TGI (OVCAR-4 ovarian): > 100 µM | TGI (UO-31 renal): > 100 µM | TGI (SF-295 CNS): > 100 µM | TGI (SN12C renal): > 100 µM | TGI (ACHN renal): > 100 µM | TGI (HT29 colon): > 100 µM | TGI (HOP-62 NSCLC): > 100 µM | TGI (MALME-3M melanoma): > 100 µM | TGI (IGROV1 ovarian): > 100 µM | TGI (NCI-H23 lung): > 100 µM | TGI (NCI-H226 lung): > 100 µM | TGI (HCT-15 colon): > 100 µM | TGI (NCI-H460 lung): > 100 µM | TGI (COLO 205 colon): > 100 µM | TGI (SK-MEL-2 melanoma): > 100 µM | TGI (LXFL 529 NSCLC): > 100 µM | TGI (OVCAR-3 ovarian): > 100 µM | TGI (CAKI-1 renal): > 100 µM | TGI (RPMI-8226 leukemia): > 100 µM | TGI (SK-MEL-28 melanoma): > 100 µM | TGI (M14 melanoma): > 100 µM | TGI (SNB-19 CNS): > 100 µM | TGI (SF-268 CNS): > 100 µM | TGI (MOLT-4 leukemia): > 100 µM | TGI (KM12 colon): > 100 µM | TGI (A498 renal): > 100 µM | TGI (SW-620 colon): > 100 µM | TGI (TK-10 renal): > 100 µM | TGI (KM20L2 colon): > 100 µM | TGI (SF-539 CNS): > 100 µM | TGI (RXF 393 renal): > 100 µM | TGI (OVCAR-8 ovarian): > 100 µM | TGI (OVCAR-5 ovarian): > 100 µM | TGI (U251 CNS): > 100 µM | TGI (HCT-116 colon): > 100 µM | TGI (DLD-1 colon): > 100 µM | TGI (SK-OV-3 ovarian): > 100 µM | TGI (HCC-2998 colon): > 100 µM | TGI (UACC-257 melanoma): > 100 µM | TGI (EKVX NSCLC): > 100 µM | TGI (DMS 114 small cell lung): > 100 µM | TGI (786-0 renal): > 100 µM | TGI (SK-MEL-5 melanoma): > 100 µM | TGI (HL-60(TB) leukemia): > 100 µM | TGI (A549 NSCLC): > 100 µM | TGI (DMS 273 small cell lung): > 100 µM | TGI (SNB-78 CNS): > 100 µM | TGI (LOX IMVI melanoma): > 100 µM | TGI (K-562 leukemia): > 100 µM | TGI (SR leukemia): > 100 µM | TGI (CCRF-CEM leukemia): > 100 µM | TGI (RXF-631 renal): > 100 µM | TGI (SNB-75 CNS): > 100 µM | TGI (UACC-62 melanoma): > 100 µM | TGI (HOP-18 NSCLC): > 100 µM
